Source: ChEMBL document CHEMBL1201862, “PubChem BioAssay data set” (2004)
Active and inactive are the calls of the source.

How the values were obtained:
[1] = Luminescent dose response cell-based high throughput screening assay for inhibitors of the Janus kinase 2 mutant JAK2V617F. [Related pubchem assays: 1446 (Primary screen.), 1521 (Confirmation assay.), 1486 (Counter screen.)]; assay type: functional
[2] = Luminescence Cell-Based Dose Confirmation HTS to Identify Inhibitors of Platelet Dense Granule Release. [Related pubchem assays: 1663 (Primary HTS), 1678 (Summary of Project)]; assay type: functional
[3] = Fluorescence Cell-Based Dose Response to Identify Inhibitors of Thrombin Receptor-Activating Peptide SFLLRN-Mediated P-Selectin Induction on Platelets. [Related pubchem assays: 1663 (Primary HTS), 1889 (retest at dose ), 1891 (counterscreen), 1678 (Project Summary)]; assay type: functional
[4] = biological target: Luciferin 4-monooxygenase (Photinus pyralis, UniProt P08659); test: inhibition of purified Photinus pyralis luciferase – biochemical, luminescence, dose response (AID 1891)
Sequence of Luciferin 4-monooxygenase (P08659 whole entry): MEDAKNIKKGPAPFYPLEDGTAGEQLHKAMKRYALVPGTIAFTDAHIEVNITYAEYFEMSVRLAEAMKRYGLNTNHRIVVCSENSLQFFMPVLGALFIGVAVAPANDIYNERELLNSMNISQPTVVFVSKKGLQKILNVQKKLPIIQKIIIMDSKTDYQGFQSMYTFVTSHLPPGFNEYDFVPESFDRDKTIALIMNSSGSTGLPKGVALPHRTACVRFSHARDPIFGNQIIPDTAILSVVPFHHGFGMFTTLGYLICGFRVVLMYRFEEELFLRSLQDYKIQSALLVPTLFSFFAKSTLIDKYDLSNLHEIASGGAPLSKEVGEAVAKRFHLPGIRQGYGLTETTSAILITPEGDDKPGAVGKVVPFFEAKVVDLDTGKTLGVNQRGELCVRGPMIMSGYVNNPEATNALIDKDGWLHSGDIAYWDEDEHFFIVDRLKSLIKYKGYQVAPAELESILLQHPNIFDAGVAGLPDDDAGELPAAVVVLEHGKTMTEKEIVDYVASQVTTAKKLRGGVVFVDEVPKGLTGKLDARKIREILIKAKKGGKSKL
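For IC50 in this document: cells exposed to compound for 72 h before the viability read.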

| Structure (SMILES) | IC50 [1] | EC50 [2] | EC50 [3] | EC50 [4] |
| --- | --- | --- | --- | --- |
| CC(C)(C)OC(=O)N[C@@H](Cc1ccccc1)c1nnc(S(=O)(=O)Cc2cccc(F)c2)o1 | 0.788 µM (active) |  |  |  |
| COc1cc2c(cc1OC)-c1cc(N3CCc4ccccc43)nc(=O)n1CC2 |  | 6.83 µM (active) | < 0.3 µM (active) | > 112 µM (not active) |
